Test results reported in patent publication US8404752B2, “Method of treating traumatic brain injury” (Oxygen Biotherapeutics, Inc., priority 2008, dated 2013).

Experiment: Physical properties and gas carrying capacity of perfluoro-tert-butylcyclohexane
Format: physicochemical

CO2 carried: 196 ml of CO2 per 100 ml of PFC | lipophilicity: non-lipophilic | oxygen carried: about 43 mL of oxygen per 100 ml of PFC | water solubility: non-water soluble | Vapor Pressure (@ 25° C.): 3.8 mmHg | Vapor Pressure (@ 37° C.): 4.4 mmHg
SMILES: FC(F)(F)C(C(F)(F)F)(C(F)(F)F)C1(F)C(F)(F)C(F)(F)C(F)(F)C(F)(F)C1(F)F [perfluoro-tert-butylcyclohexane]
